Laboratory results as given in patent publication US10435402B2, “Bicyclic compounds, compositions and medicinal applications thereof” (Advinus Therapeutics Limited, priority 2015, dated 2019).

Molecular target: T1, GAL4-DBD/RORγ-LBD (Homo sapiens, UniProt P51449)
T1 construct: expressed in transfected cells; host or cells: HEK293T
Assay: RORγt transactivation reporter assay (GAL4-DBD/RORγ-LBD, luciferase read out)
Format: cell-based
Settings: HEK293T cells, GAL4-UAS luciferase reporter, overnight (18-24 hours) incubation
Protocol: RORγt Transactivation Reporter Assay Protocol: The inhibition of RORγt activity in cells was evaluated using a GAL4-UAS reporter system in HEK293T cells employing a luciferase read out. RORγt ligand binding domain (LBD) was cloned into the pFN26A (BIND) vector (Promega #[…]) containing yeast GAL4-DBD to form a RORγt LBD-GAL4 DBD fusion construct. This vector also contained a Renilla Luciferase reporter expressed under a SV40 promoter which was used as a control for transfection efficiency. A transcriptional reporter expression construct pGL4.35 (Promega #[…]) was used to monitor RORγt LBD-GAL4 activity. This construct contained nine repeats of GAL4 binding site/upstream activating sequence (UAS) controlling expression of a firefly luciferase reporter Luc2P. When transfected together in cells, the RORγ-LBD-DBD fusion protein drives expression of the luciferase reporter. For the assay, HEK293T cells were plated in a flat bottom 96 well plate at a density of 25,000 cells/well/100 ul of DMEM high glucose medium (Sigma D5648) containing 10% FBS and antibiotic. Cells were incubated overnight at 37 C/5% CO2. The next day, medium from the wells was removed and replaced with 30 ul of OptiMEM® (Invitrogen #31985070). 100 ng each of pBIND RORγ LBD-DBD and pGL4.35 reporter plasmids was transfected in HEK293T cells using Lipofectamine 2000 (Invitrogen #11668-019) where 10 ul of transfection complex was added to the each well. Control transfections were performed with an empty pF[…] vector and pGL4.35 vector. The transfected cells were incubated for 5 hours at 37 C/5% CO2. After incubation, 40 ul of DMEM high glucose medium without FBS, with antibiotic was added to each well. A 10 mM stock solution of test compound prepared in 100% DMSO was first diluted in DMSO and then in DMEM medium without FBS to give the required final compound concentration. Concentration of DMSO in the test compound solution was 0.4%. 20 ul of diluted compound solution was added to each well. Cells were incubated overnight (18-24 hours) at 37 C/5% CO2. The next day, luciferase assay was performed using the Dual Glo® Luciferase Assay System (Promega #E2940). Briefly, medium was removed from the wells and replaced with 40 ul 1× Passive Lysis Buffer (Promega #E1941). Plate was incubated at room temperature on a plate shaker at 1000 rpm for 40 min. After incubation, plate was centrifuged at 1000 rpm for 2 min. 20 ul of the lysate was transferred from each well to that of solid white half area 96 well plate (Costar #3693). Dual Glo® Reagent was thawed to room temperature and 20 ul was added to each well containing lysate. Plate was centrifuged at 1000 rpm/2 min and incubated at room temperature on a plate shaker at 600 rpm/25 min. Firefly luciferase signal was measured on a Tecan Safire2. After measurement, 20 ul of Dual Glo® Stop Glo® Reagent was added to each well. Plate was centrifuged at 1000 rpm/2 min and incubated at room temperature on a plate shaker at 600 rpm/25 min. Renilla luciferase signal was measured on Tecan Safire 2. IC50 values for test compounds were calculated from the normalized luciferase signal data using GraphPad Prism software.

T1 sequence (P51449 269-508 limits assumed): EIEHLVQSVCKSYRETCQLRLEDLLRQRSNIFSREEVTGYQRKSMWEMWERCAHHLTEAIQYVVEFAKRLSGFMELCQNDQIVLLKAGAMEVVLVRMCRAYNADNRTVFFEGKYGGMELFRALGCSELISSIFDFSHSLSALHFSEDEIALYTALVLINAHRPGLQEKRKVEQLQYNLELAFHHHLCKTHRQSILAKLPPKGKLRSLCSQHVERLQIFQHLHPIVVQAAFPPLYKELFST
T1 sequence (P04386 1-147 partner limits assumed): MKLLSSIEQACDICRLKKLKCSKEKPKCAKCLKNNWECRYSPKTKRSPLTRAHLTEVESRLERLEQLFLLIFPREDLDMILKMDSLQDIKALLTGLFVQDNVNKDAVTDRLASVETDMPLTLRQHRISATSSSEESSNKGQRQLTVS

Compound	IC50
CCOC(=O)c1ccc(-c2cc(C(=O)c3c(Cl)cccc3C3CC3)n3ccccc23)cc1 [Example A-31, ethyl 4-[3-(2-chloro-6-cyclopropyl-benzoyl)indolizin-1-yl]benzoate]	< 500 nM
O=C(O)c1ccc(-c2cc(C(=O)c3c(F)cccc3Cl)n3cccc(F)c23)cc1 [Example A-34, 4-[3-(2-chloro-6-fluoro-benzoyl)-8-fluoro-indolizin-1-yl]benzoic acid]	< 500 nM
O=C(O)c1ccc(-c2cc(C(=O)c3c(F)cccc3Cl)n3cccc(F)c23)c(F)c1 [Example A-35, 4-[3-(2-chloro-6-fluoro-benzoyl)-8-fluoro-indolizin-1-yl]-3-fluoro-benzoic acid]	< 500 nM
CCOC(=O)c1ccc(-c2cc(C(=O)c3c(F)ccc(F)c3F)n3ccccc23)c(F)c1 [Example A-41, ethyl 3-fluoro-4-[3-(2,3,6-trifluorobenzoyl)indolizin-1-yl]benzoate]	< 500 nM
CCOC(=O)c1ccc(-c2cc(C(=O)c3c(F)cccc3F)n3cccc(F)c23)c(F)c1 [Example A-46, ethyl 4-[3-(2,6-difluorobenzoyl)-8-fluoro-indolizin-1-yl]-3-fluoro-benzoate]	< 500 nM
O=C(O)c1ccc(-c2cc(C(=O)c3c(F)cccc3F)n3cccc(F)c23)cc1 [Example A-47, 4-[3-(2,6-difluorobenzoyl)-8-fluoro-indolizin-1-yl]benzoic acid]	< 500 nM
O=C(O)c1ccc(-c2cc(C(=O)c3c(F)cccc3F)n3cccc(F)c23)c(F)c1 [Example A-48, 4-[3-(2,6-difluorobenzoyl)-8-fluoro-indolizin-1-yl]-3-fluoro-benzoic acid]	< 500 nM
O=C(O)c1ccc(-c2cc(C(=O)c3c(Cl)ccc(F)c3Cl)n3cccc(F)c23)c(F)c1 [Example A-49, 4-[3-(2,6-dichloro-3-fluoro-benzoyl)-8-fluoro-indolizin-1-yl]-3-fluoro-benzoic acid]	< 500 nM
O=C(O)c1ccc(-c2cc(C(=O)c3c(Cl)cccc3Br)n3ccccc23)c(F)c1 [Example A-52, 4-[3-(2-bromo-6-chloro-benzoyl)indolizin-1-yl]-3-fluoro-benzoic acid]	< 1000 nM
CC(C)(C)OC(=O)N1CC=C(c2cc(C(=O)c3c(Cl)cccc3Cl)n3ccccc23)CC1 [Example A-54, tert-butyl 4-[3-(2,6-dichlorobenzoyl)indolizin-1-yl]-3,6-dihydro-2H-pyridine-1-carboxylate]	> 5000 nM
CC(C)(C)OC(=O)N1CCC=C(c2cc(C(=O)c3c(Cl)ccc(F)c3Cl)n3ccccc23)C1 [Example A-55, tert-butyl 5-[3-(2,6-dichloro-3-fluoro-benzoyl)indolizin-1-yl]-3,6-dihydro-2H-pyridine-1-carboxylate]	> 5000 nM
CCOC(=O)c1ccc(-c2cc(C(=O)c3c(Cl)ccc(F)c3Cl)n3ccccc23)cc1 [Example A-56, ethyl 4-[3-(2,6-dichloro-3-fluoro-benzoyl)indolizin-1-yl]benzoate]	< 500 nM
O=C(O)c1cccc(-c2cc(C(=O)c3c(Cl)cccc3C(F)(F)F)n3ccccc23)c1 [Example A-57, 3-[3-[2-chloro-6-(trifluoromethyl)benzoyl]indolizin-1-yl]benzoic acid]	> 5000 nM
O=C(O)c1ccc(-c2cc(C(=O)c3c(Cl)cccc3C(F)(F)F)n3cccc(Cl)c23)cc1 [Example A-58, 4-[8-chloro-3-[2-chloro-6-(trifluoromethyl)benzoyl]indolizin-1-yl]benzoic acid]	< 500 nM
CCOC(=O)c1ccc(-c2cc(C(=O)c3c(Cl)cccc3Cl)n3cc(C(F)(F)F)ccc23)cc1 [Example A-64, ethyl 4-[3-(2,6-dichlorobenzoyl)-6-(trifluoromethyl)indolizin-1-yl]benzoate]	< 500 nM
O=C(c1c(Cl)cccc1C(F)(F)F)c1cc(C2=CCC(C(=O)O)CC2)c2ccccn12 (stereo not drawn) [Example A-65, 4-[3-[2-chloro-6-(trifluoromethyl)benzoyl]indolizin-1-yl]cyclohex-3-ene-1-carboxylic acid]	< 500 nM
O=C(O)c1ccc(-c2c(F)c(C(=O)c3c(Cl)cccc3Cl)n3ccccc23)cc1 [Example B-2, 4-[3-(2,6-dichlorobenzoyl)-2-fluoro-indolizin-1-yl]benzoic acid]	< 500 nM
COC(=O)c1ccc(-c2c(F)c(C(=O)c3c(Cl)cccc3Cl)n3ccccc23)c(F)c1 [Example B-3, methyl 4-[3-(2,6-dichlorobenzoyl)-2-fluoro-indolizin-1-yl]-3-fluoro-benzoate]	< 500 nM

Now from value to compound:

IC50	Compound
< 500 nM	CCOC(=O)c1ccc(-c2cc(C(=O)c3c(F)cccc3Cl)n3cccc(F)c23)cc1 [Example A-32, ethyl 4-[3-(2-chloro-6-fluoro-benzoyl)-8-fluoro-indolizin-1-yl]benzoate]
< 500 nM	CCOC(=O)c1ccc(-c2cc(C(=O)c3c(F)cccc3F)n3ccccc23)cc1 [Example A-36, ethyl 4-[3-(2,6-difluorobenzoyl)indolizin-1-yl]benzoate]
< 500 nM	CCOC(=O)c1ccc(-c2cc(C(=O)c3c(F)cccc3F)n3ccccc23)c(F)c1 [Example A-38, ethyl 4-[3-(2,6-difluorobenzoyl)indolizin-1-yl]-3-fluoro-benzoate]
< 500 nM	O=C(O)c1ccc(-c2cc(C(=O)c3c(F)cccc3F)n3ccccc23)c(F)c1 [Example A-39, 4-[3-(2,6-difluorobenzoyl)indolizin-1-yl]-3-fluoro-benzoic acid]
< 500 nM	O=C(O)c1ccc(-c2cc(C(=O)c3c(F)ccc(F)c3F)n3ccccc23)cc1 [Example A-42, 4-[3-(2,3,6-trifluorobenzoyl)indolizin-1-yl]benzoic acid]
< 500 nM	O=C(O)c1ccc(-c2cc(C(=O)c3c(Cl)ccc(F)c3Cl)n3cccc(F)c23)cc1 [Example A-43, 4-[3-(2,6-dichloro-3-fluoro-benzoyl)-8-fluoro-indolizin-1-yl]benzoic acid]
< 500 nM	O=C(O)c1ccc(-c2cc(C(=O)c3c(F)ccc(F)c3F)n3ccccc23)c(F)c1 [Example A-44, 3-fluoro-4-[3-(2,3,6-trifluorobenzoyl)indolizin-1-yl]benzoic acid]
< 500 nM	CCOC(=O)c1ccc(-c2cc(C(=O)c3c(F)cccc3F)n3cccc(F)c23)cc1 [Example A-45, ethyl 4-[3-(2,6-difluorobenzoyl)-8-fluoro-indolizin-1-yl]benzoate]
< 5000 nM	O=C(O)c1ccc(-c2cc(C(=O)c3c(Cl)cccc3Br)n3ccccc23)cc1 [Example A-50, 4-[3-(2-bromo-6-chloro-benzoyl)indolizin-1-yl]benzoic acid]
< 500 nM	O=C(O)c1ccc(-c2cc(C(=O)c3c(Cl)cccc3C(F)(F)F)n3cccc(Cl)c23)c(F)c1 [Example A-59, 4-[8-chloro-3-[2-chloro-6-(trifluoromethyl)benzoyl]indolizin-1-yl]-3-fluoro-benzoic acid]
< 500 nM	O=C(O)c1ccc(-c2cc(C(=O)c3c(Cl)cccc3C(F)(F)F)n3ccccc23)cc1F [Example A-60, 4-[3-[2-chloro-6-(trifluoromethyl)benzoyl]indolizin-1-yl]-2-fluoro-benzoic acid]
< 500 nM	O=C(O)c1ccc(-c2cc(C(=O)c3c(Cl)cccc3Cl)n3cccc(C(F)(F)F)c23)cc1 [Example A-61, 4-[3-(2,6-dichlorobenzoyl)-8-(trifluoromethyl)indolizin-1-yl]benzoic acid]
< 500 nM	CCOC(=O)c1ccc(-c2cc(C(=O)c3c(Cl)cccc3Cl)n3cccc(C(F)(F)F)c23)cc1 [Example A-62, ethyl 4-[3-(2,6-dichlorobenzoyl)-8-(trifluoromethyl)indolizin-1-yl]benzoate]
< 5000 nM	O=C(O)c1ccc(-c2cc(C(=O)c3c(Cl)cccc3Cl)n3cc(C(F)(F)F)ccc23)cc1 [Example A-63, 4-[3-(2,6-dichlorobenzoyl)-6-(trifluoromethyl)indolizin-1-yl]benzoic acid]
< 500 nM	CCOC(=O)c1ccc(-c2c(F)c(C(=O)c3c(Cl)cccc3Cl)n3ccccc23)cc1 [Example B-1, Ethyl 4-[3-(2,6-dichlorobenzoyl)-2-fluoro-indolizin-1-yl]benzoate]
